Source: ChEMBL document CHEMBL6177939, “The role of silicon in drug discovery: a review” (RSC Med Chem, 2024)
Values after ≈ are worked out from the molar mass of the structure shown. Blank lines part the entries; values can stand above or below the compound they belong to.

What was measured:
[1] = system: Human immunodeficiency virus 1; experiment: Antiviral activity against HIV-1 IIIB infected in human MT2 cells assessed as reduction in virus-induced cytopathic effect incubated for 4 days by spectrophotometric based MTT assay; type: functional, organism-based; details: Human immunodeficiency virus 1, IIIB, MT2, 96 h
[2] = target: Human immunodeficiency virus type 1 reverse transcriptase (Human immunodeficiency virus 1, UniProt Q72547); experiment: Inhibition of recombinant HIV-1 reverse transcriptase
Escherichia coli [3] = experiment: Antibacterial activity against Escherichia coli; type: functional
Bacillus subtilis [4] = experiment: Antibacterial activity against Bacillus subtilis; type: functional
[5] = target: T1, Angiotensin-converting enzyme (Homo sapiens, UniProt P12821); experiment: Binding affinity to ACE (unknown origin) assessed as inhibition constant
Interstitial collagenase = Interstitial collagenase (Homo sapiens, UniProt P03956); experiment: Inhibition of MMP-1 (unknown origin)
[6] = target: T1, Angiotensin-converting enzyme; experiment: Inhibition of ACE (unknown origin) using Hip-His-Leu-OH peptide as substrate by fluorimetric analysis
Bacillus subtilis [7] = experiment: Antibacterial activity against Bacillus subtilis B-407 (all Russian collections of micro-organism) assessed as reduction in bacterial growth incubated for 24 hrs by broth micro-dilution method; type: functional
Enterococcus durans [8] = experiment: Antibacterial activity against Enterococcus durans B-603 (all Russian collections of micro-organism) assessed as reduction in bacterial growth incubated for 24 hrs by broth micro-dilution method; type: functional
[9] = system: Human immunodeficiency virus 1; experiment: Antiviral activity against HIV-1 infected in human MT4 cells; type: functional, organism-based; details: Human immunodeficiency virus 1, MT4
Mus musculus = experiment: Antiinflammatory activity against carrageenin-induced paw edema AKR mouse model assessed as inhibition of CPE at 0.01 micromol/kg, ip relative to control; type: functional; set-up: scale not given: the % may be the effect or the level left; details: dose 0.01 µmol/kg
[10] = Inhibition of soya bean lipoxygenase; set-up: species or system Glycine max
Bacillus subtilis [11] = experiment: Antibacterial activity against Bacillus subtilis B-407 (all Russian collections of micro-organism) assessed as reduction in bacterial growth by broth micro-dilution method; type: functional
Enterococcus durans [12] = experiment: Antibacterial activity against Enterococcus durans B-603 (all Russian collections of micro-organism) assessed as reduction in bacterial growth by broth micro-dilution method; type: functional
Fusarium solani = experiment: Antifungal activity against Fusarium solani ATCC 20327 assessed as reduction in fungal growth; type: functional
Penicillium chrysogenum = experiment: Antifungal activity against Penicillium chrysogenum ATCC 20044 assessed as reduction in fungal growth; type: functional
Aspergillus fumigatus = experiment: Antifungal activity against Aspergillus fumigatus ATCC 66567 assessed as reduction in fungal growth; type: functional
Pseudomonas aeruginosa = experiment: Antibacterial activity against Pseudomonas aeruginosa PAO1 assessed as reduction in bacterial growth by broth micro-dilution method; type: functional
Staphylococcus aureus = experiment: Antibacterial activity against methicillin-resistant Staphylococcus aureus assessed as reduction in bacterial cell growth by broth micro-dilution method; type: functional
[13] = system: Staphylococcus epidermidis; experiment: Antibacterial activity against methicillin-resistant Staphylococcus epidermidis 3382 assessed as reduction in bacterial cell growth by broth micro-dilution method; type: functional
Giardia intestinalis = experiment: Antiparasitic activity against Giardia intestinalis assessed as reduction in parasite growth incubated for 24 hrs by MTT assay; type: functional, organism-based; details: Giardia duodenalis
Trichomonas vaginalis = experiment: Antiparasitic activity against Trichomonas vaginalis assessed as reduction in parasite growth measured for 24 hrs by MTT assay; type: functional, organism-based
HCT-8 = experiment: Cytotoxicity against human HCT-8 cells assessed as inhibition of cell growth at 5 ug/ml relative to control; type: functional
Bel-7402 = experiment: Cytotoxicity against human Bel-7402 cells assessed as inhibition of cell growth at 5 ug/ml relative to control; type: functional
Plasmodium falciparum [14] = experiment: Antimalarial activity against […] Plasmodium falciparum Dd2 assessed as reduction in parasite growth; type: functional, organism-based
Plasmodium falciparum [15] = experiment: Antimalarial activity against chloroquine-sensitive Plasmodium falciparum NF54 assessed as reduction in parasite growth; type: functional, organism-based
[16] = Antiproliferative activity against human WHCO1 cells assessed as reduction in cell viability incubated for 48 hrs by MTT assay; type: functional, cell-based; details: WHCO1, 48 h
Escherichia coli [17] = experiment: Antibacterial activity against Escherichia coli B-1238 (all Russian collections of micro-organism) assessed as reduction in bacterial growth by broth micro-dilution method; type: functional
[18] = In vivo inhibition of AChE activity in Sprague-Dawley rat brain assessed as effective dose; type: functional
Acetylcholinesterase = Acetylcholinesterase (Homo sapiens, UniProt P22303); experiment: Binding affinity to AChE (unknown origin) using acetylthiocholine iodide as substrate assessed as inhibition constant by Ellman's method
[19] = Acute toxicity in ip dosed Sprague-Dawley rat assessed as lethal dose; type: organism-based; details: in vivo
Tetranychus cinnabarinus = experiment: Toxicity in Tetranychus cinnabarinus assessed as lethal dose; type: organism-based

T1 sequence (P12821 whole entry): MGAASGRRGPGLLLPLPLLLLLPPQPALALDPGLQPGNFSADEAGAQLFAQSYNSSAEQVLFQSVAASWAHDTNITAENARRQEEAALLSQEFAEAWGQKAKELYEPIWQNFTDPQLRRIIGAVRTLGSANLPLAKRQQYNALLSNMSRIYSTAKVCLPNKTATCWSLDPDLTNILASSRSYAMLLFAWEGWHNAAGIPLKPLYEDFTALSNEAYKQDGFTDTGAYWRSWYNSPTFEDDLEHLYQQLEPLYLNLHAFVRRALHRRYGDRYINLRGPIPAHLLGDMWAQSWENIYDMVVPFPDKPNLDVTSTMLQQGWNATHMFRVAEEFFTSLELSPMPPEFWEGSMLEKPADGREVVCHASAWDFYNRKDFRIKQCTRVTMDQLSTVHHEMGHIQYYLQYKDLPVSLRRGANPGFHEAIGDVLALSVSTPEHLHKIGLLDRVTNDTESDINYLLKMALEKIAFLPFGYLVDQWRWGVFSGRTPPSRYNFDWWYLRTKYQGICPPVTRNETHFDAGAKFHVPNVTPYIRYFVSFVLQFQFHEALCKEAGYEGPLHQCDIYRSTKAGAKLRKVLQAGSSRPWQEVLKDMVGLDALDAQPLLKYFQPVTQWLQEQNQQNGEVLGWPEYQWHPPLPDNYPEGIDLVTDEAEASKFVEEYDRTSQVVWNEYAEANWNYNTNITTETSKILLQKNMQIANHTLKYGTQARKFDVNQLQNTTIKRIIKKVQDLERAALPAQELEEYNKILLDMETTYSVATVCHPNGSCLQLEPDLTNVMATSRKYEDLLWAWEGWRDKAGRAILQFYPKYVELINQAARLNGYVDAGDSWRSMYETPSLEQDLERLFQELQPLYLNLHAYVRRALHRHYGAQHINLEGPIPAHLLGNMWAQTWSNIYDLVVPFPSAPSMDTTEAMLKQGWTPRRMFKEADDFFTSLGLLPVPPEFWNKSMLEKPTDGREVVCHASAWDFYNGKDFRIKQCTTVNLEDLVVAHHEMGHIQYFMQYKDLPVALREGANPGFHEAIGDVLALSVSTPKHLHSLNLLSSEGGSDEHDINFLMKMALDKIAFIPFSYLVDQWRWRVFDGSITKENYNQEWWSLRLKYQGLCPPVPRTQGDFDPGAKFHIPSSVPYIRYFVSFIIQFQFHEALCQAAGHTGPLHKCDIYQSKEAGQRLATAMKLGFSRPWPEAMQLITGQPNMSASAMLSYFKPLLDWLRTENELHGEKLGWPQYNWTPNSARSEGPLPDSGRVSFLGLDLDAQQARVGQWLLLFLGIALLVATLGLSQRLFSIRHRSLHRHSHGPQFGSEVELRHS
Chain of Interstitial collagenase (P03956 whole entry): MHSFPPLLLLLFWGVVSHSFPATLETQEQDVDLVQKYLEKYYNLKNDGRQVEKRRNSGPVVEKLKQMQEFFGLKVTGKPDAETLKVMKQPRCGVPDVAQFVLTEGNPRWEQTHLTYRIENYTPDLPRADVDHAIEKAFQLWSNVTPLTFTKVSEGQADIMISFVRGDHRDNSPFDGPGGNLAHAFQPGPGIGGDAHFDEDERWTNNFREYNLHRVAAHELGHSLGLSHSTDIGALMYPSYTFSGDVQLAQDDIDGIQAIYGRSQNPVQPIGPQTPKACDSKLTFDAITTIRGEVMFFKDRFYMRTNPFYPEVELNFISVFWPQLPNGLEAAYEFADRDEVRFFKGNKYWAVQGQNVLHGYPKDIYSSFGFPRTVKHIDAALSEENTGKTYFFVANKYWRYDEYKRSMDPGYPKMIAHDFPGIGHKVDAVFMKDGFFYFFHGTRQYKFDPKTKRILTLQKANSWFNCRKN
Chain of Acetylcholinesterase (P22303 whole entry): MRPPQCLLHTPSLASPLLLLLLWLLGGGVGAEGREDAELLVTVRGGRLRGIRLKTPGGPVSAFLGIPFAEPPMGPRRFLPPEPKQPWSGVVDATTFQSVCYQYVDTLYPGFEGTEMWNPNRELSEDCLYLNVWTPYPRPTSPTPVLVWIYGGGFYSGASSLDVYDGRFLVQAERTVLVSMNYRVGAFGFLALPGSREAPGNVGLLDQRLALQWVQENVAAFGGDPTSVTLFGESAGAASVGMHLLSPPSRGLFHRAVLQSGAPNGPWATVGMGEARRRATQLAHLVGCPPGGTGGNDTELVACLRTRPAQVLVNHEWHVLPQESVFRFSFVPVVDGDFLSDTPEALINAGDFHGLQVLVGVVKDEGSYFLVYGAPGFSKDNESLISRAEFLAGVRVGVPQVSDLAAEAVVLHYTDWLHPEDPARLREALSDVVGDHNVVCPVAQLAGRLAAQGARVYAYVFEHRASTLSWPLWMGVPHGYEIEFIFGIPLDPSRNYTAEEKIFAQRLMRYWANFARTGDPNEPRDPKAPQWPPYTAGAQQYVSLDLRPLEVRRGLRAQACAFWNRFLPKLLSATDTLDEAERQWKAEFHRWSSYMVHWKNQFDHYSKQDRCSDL

IC50 [2]: 6000 nM
Compound: C[Si](O)(O[Si](C)(CCCn1cnc2c(N)ncnc21)c1ccccc1)c1ccccc1 (configuration not stated)
IC50 [1]: 10000 nM

MIC (Escherichia coli [3]): 0.765 µg/mL
MIC (Bacillus subtilis [4]): 0.8 µg/mL
Compound: CCN(CC)CC.S=C(S)NCCC[Si-]123OCC[N+]1(CCO2)CCO3 (configuration not stated)

Ki [5]: 10 nM
Compound: CC(C)C[C@H](C[Si](O)(O)CNC(=O)CCc1ccccc1)C(=O)NC(=O)N[C@@H](CC(C)C)C(=O)O

IC50 (Interstitial collagenase): ~41 nM
Compound: C[Si](C)(C)n1c(=S)c(=P(c2ccccc2)(c2ccccc2)c2ccccc2)/c1=N/c1ccccc1

IC50 [6]: 43 nM
Compound: CC(CS)C(=O)N1C[Si](C)(C)C[C@H]1C(=O)O (mixture of isomers)

MIC (Bacillus subtilis [7]): 6.2 µg/mL (≈ 14.8 µM)
MIC (Enterococcus durans [8]): 12.5 µg/mL (≈ 29.8 µM)
Compound: COc1ccc(-c2cc(CNCCC[Si-]345OCC[N+]3(CCO4)CCO5)on2)cc1 (configuration not stated)

EC50 [9]: 200 nM
Compound: Cc1cccc(C(O)c2c(C(C)C)c(=O)[nH]c(=O)n2COCc2ccccc2)c1 (configuration not stated)

Compound: C[Si](C)(C)CCC[n+]1ccsc1N.[I-]
Activity (Mus musculus): 55%
IC50 [10]: 10 nM

MIC (Bacillus subtilis [11]): 6.2 µg/mL (≈ 19.1 µM)
MIC (Enterococcus durans [12]): 3.1 µg/mL (≈ 9.53 µM)
Compound: O=C(NCCC[Si-]123OCC[N+]1(CCO2)CCO3)c1ccc[nH]1 (configuration not stated)

MIC (Fusarium solani): 0.08 µg/mL (≈ 0.218 µM)
MIC (Penicillium chrysogenum): 0.08 µg/mL (≈ 0.218 µM)
MIC (Aspergillus fumigatus): 0.08 µg/mL (≈ 0.218 µM)
Compound: COc1ccc(O)c(/C=N/CCC[Si-]234OCC[N+]2(CCO3)CCO4)c1 (configuration not stated)

Compound: Fc1ccc(/N=C/c2c(OCc3cn(CCC[Si-]456OCC[N+]4(CCO5)CCO6)nn3)ccc3ccccc23)cc1 (configuration not stated)
MIC (Pseudomonas aeruginosa): 13.2 µg/mL (≈ 23.6 µM)
MIC (Staphylococcus aureus): 3.25 µg/mL (≈ 5.79 µM)
MIC [13]: 3.25 µg/mL (≈ 5.79 µM)

Compound: CC1C[N+]23CC(C)O[Si-]2(CCC/N=C/c2ccc4c5c6c(ccc25)C=CCC6=CC4)(O1)OC(C)C3 (configuration not stated)
IC50 (Giardia intestinalis): 53300 nM
IC50 (Trichomonas vaginalis): 1750 nM

Compound: CC(C)OP(=O)(NCCC[Si-]123OCC[N+]1(CCO2)CCO3)OCCn1c(=O)c(F)cn(C2CCCO2)c1=O (configuration not stated)
inhibition at 5 µg/mL (HCT-8): 29.3%
inhibition at 5 µg/mL (Bel-7402): 29.3%

Compound: C[Si](C)(C)CNc1ccnc2cc(Cl)ccc12
IC50 (Plasmodium falciparum [14]): 525 nM
IC50 (Plasmodium falciparum [15]): 248 nM
IC50 [16]: 4410 nM

MIC (Escherichia coli [17]): 62.5 µg/mL (≈ 165 µM)
Compound: O=C(NCCC[Si-]123OCC[N+]1(CCO2)CCO3)c1cc2c([nH]1)CCCC2 (configuration not stated)

Compound: C[Si](C)(C)c1cccc(C(=O)C(F)(F)F)c1
ED50 [18]: 2.5 mg/kg
Ki (Acetylcholinesterase): 0.047 nM
LD50 [19]: 180 mg/kg

Compound: C/C(=C(\OC(=O)C(C)(C)C)c1c(C)c(C)nn1C)c1ccc([Si](C)(C)C)cc1
LC50 (Tetranychus cinnabarinus): 0.062 ng/mL (≈ 0.000156 µM)
